Reference: patent US12358949B2, “Defensin fragments for use in therapy or prophylaxis” (priority 2019, dated 2025)
Entries after “also recorded” stand apart in the source; their conditions may differ. Where two headings read alike, the source gives them in different places. Where a SMILES comes first, the peptide text is derived from it. Bridges are numbered along the chain shown (N, C = ends).

Experiments:
Type in all cases: cell-based
commensal bacteria = experiment: Radial diffusion assay, HD-5 fragments; details: 4 μg fragment, 2 μg full-length peptide; commensal bacteria (FIG. 3)
Method: In the RDA 2 μg of the full length and 4 μg of each fragment were used. An inhibition zone greater than 5 mm was determined as high activity, between 2.5 and 5 mm as low activity and 2.5 mm were the diameter of the punched well and therefore no activity.
(§1) Antimicrobial activity of all peptides was tested with a modified radial diffusion assay from Lehrer et al^12 Shortly described, log-phase bacteria grew (anaerobic bacteria with AnaeroGen, Oxoid in anaerobic jars) in liquid tryptic soy broth (TSB) (Becton Dickinson). After several wash steps in 10 mM sodium phosphate buffer pH 7.4, 4×10^6 cfu/ml was used per assay. To measure the antibacterial effect of the identified peptide fragments, the bacteria were incubated in 10 mM sodium phosphate (pH 7.4) containing 0.3 mg/ml TSB powder and 1% (w/v) low EEO-agarose (Applichem). Peptide fragments were then pipetted into punched wells and allowed to diffuse for 3 hours at 37° C. After that a nutrient rich gel with 6% TSB (w/v) and 1% agarose in 10 mM sodium phosphate buffer was poured on top of the first gel. After 24 hours the inhibition zones were measured. […] All experiments were carried out at least three times.

E. coli MC1000 = experiment: Transmission electron microscopy of peptide treated bacteria; details: 200 μg/ml, 2 hours
Method: Transmission electron microcscopy experiments were performed as previously described^11. 6×10^8 cfu E. coli MC1000 was incubated with 200 μg/ml of each peptide for 2 hours. Bacteria were fixed in Karnovsky's fixative, embedded in agarose, coagulated, cut in small blocks and fixed again in Karnovsky's solution. After post-fixation and embedding in glycid ether blocks were cut using an ultra-microtome. Sections (30 nm) were mounted on copper grids and analyzed using a Zeiss LIBRA 120 transmissions electron microscope.

P. aeruginosa ATCC 27853 = tested on: P. aeruginosa ATCC 27853
Method: (§2) The tested bacteria were incubated overnight in 1×TSB broth, centrifuged and washed with 10 mM sodium phosphate buffer containing 1% (w/v) TSB broth. 5×10^5 cfu/ml bacteria were mixed with different peptide concentrations in 10 mM sodium phosphate buffer with 1% (w/v) TSB (final volume 100 μl) and incubated for 2 hours at 37° C. Afterwards we added 100 μl 2×TSB broth and we measured the optical density at 600 nm (Spark 10M, Tecan, Austria). Bacterial growth was monitored for 12 hours, growing at 37° C. with shaking during the measurements each 30 minutes, except for Akkermansia muciniphila which were incubated at 37° C. in an anaerobic jar and growth was measured after 72 hours.

E. faecium 475747 = tested on: E. faecium 475747
Method: as §2

A. baumannii 4-MRGN = tested on: A. baumannii 4-MRGN
Method: as §2

pathogenic bacteria = experiment: Radial diffusion assay, HD-5 fragments; details: pathogenic Gram-positive and Gram-negative bacteria (FIG. 4)
Method: A heat map system with high activity (inhibition zone in the RDA>5 mm), low activity (2.5 to 5 mm) and no activity (2.5 mm) was used.
as §1

P. aeruginosa 4-MRGN = tested on: P. aeruginosa 4-MRGN
Method: as §2

S. aureus ATCC 25923 = tested on: S. aureus ATCC 25923
Method: as §2

Y. enterocolitica = tested on: Y. enterocolitica
Method: as §2

P. aeruginosa PAO1 = tested on: P. aeruginosa PAO1
Method: as §2

P. aeruginosa XPAT2 = tested on: P. aeruginosa XPAT2
Method: as §2

P. aeruginosa XPAT1 = tested on: P. aeruginosa XPAT1
Method: as §2

E. faecium DSM 20477 = tested on: E. faecium DSM 20477
Method: as §2

K. pneumoniae DSM 30104 = tested on: K. pneumoniae DSM 30104
Method: as §2

S. aureus USA300 = tested on: S. aureus USA300
Method: as §2

E. coli JM83 = tested on: E. coli JM83
Method: as §2

A. baumannii DSM 30007 = tested on: A. baumannii DSM 30007
Method: as §2

K. pneumoniae 3-MRGN = details: K. pneumoniae 3-MRGN; after 12 hours
Method: as §2

C. albicans 529L = tested on: C. albicans 529L

C[C@H](N)C(=O)N[C@H](C(=O)N[C@@H](CS)C(=O)N[C@@H](Cc1ccc(O)cc1)C(=O)N[C@@H](CS)C(=O)N[C@@H](CCCNC(=N)N)C(=O)N[C@H](C(=O)NCC(=O)N[C@@H](CCCNC(=N)N)C(=O)N[C@@H](CS)C(=O)N[C@@H](C)C(=O)N[C@H](C(=O)N[C@@H](CCCNC(=N)N)C(=O)O)[C@@H](C)O)[C@@H](C)O)[C@@H](C)O [HD-51-13] (H-ATCYCRTGRCATR-OH; N-terminus and C-terminus assumed)
antimicrobial activity in radial diffusion assay (commensal bacteria): exhibited antimicrobial properties, albeit to a lesser extent than HD-51-9 | phenotype of peptide treated bacteria (TEM) (E. coli MC1000): bigger aggregation inside the bacteria

CC[C@H](C)[C@H](NC(=O)[C@H](CCC(=O)O)NC(=O)[C@H](CS)NC(=O)[C@@H](NC(=O)CNC(=O)[C@H](CO)NC(=O)[C@H](CC(C)C)NC(=O)[C@H](CO)NC(=O)[C@H](CCC(=O)O)NC(=O)[C@H](CCCNC(=N)N)NC(=O)[C@@H](NC(=O)[C@H](C)NC(=O)[C@H](CS)NC(=O)[C@H](CCCNC(=N)N)NC(=O)CNC(=O)[C@@H](N)[C@@H](C)O)[C@@H](C)O)C(C)C)C(=O)N[C@@H](CO)C(=O)NCC(=O)N[C@@H](CCCNC(=N)N)C(=O)N[C@@H](CC(C)C)C(=O)N[C@@H](Cc1ccc(O)cc1)C(=O)N[C@@H](CCCNC(=N)N)C(=O)N[C@@H](CC(C)C)C(=O)N[C@@H](CS)C(=O)N[C@@H](CS)C(=O)N[C@@H](CCCNC(=N)N)C(=O)O [HD-57-32] (H-TGRCATRESLSGVCEISGRLYRLCCR-OH; N-terminus and C-terminus assumed)
MIC (P. aeruginosa ATCC 27853; ATCC 27853, 12 h): 50 µM | MIC (P. aeruginosa ATCC 27853; P. aeruginosa ATCC 27853, after 12 hours, listed as 7-32): 144.5 µg/mL | MIC (E. faecium 475747; 475747, 12 h): 25 µM | MIC (E. faecium 475747; E. faecium 475747, after 12 hours, listed as 7-32): 72.2 µg/mL | MIC (A. baumannii 4-MRGN; 4-MRGN, 12 h): 25 µM | MIC (A. baumannii 4-MRGN; A. baumannii 4-MRGN, after 12 hours, listed as 7-32): 72.25 µg/mL | antimicrobial activity in radial diffusion assay (commensal bacteria): exhibited antimicrobial properties, albeit to a lesser extent than HD-51-9 | antimicrobial activity in radial diffusion assay (pathogenic bacteria): strong effect on the growth of every tested bacterium

CC[C@H](C)[C@H](NC(=O)[C@H](CCC(=O)O)NC(=O)[C@H](CS)NC(=O)[C@@H](NC(=O)CNC(=O)[C@H](CO)NC(=O)[C@H](CC(C)C)NC(=O)[C@H](CO)NC(=O)[C@H](CCC(=O)O)NC(=O)[C@H](CCCNC(=N)N)NC(=O)[C@@H](NC(=O)[C@H](C)NC(=O)[C@@H](N)CS)[C@@H](C)O)C(C)C)C(=O)N[C@@H](CO)C(=O)NCC(=O)N[C@@H](CCCNC(=N)N)C(=O)N[C@@H](CC(C)C)C(=O)N[C@@H](Cc1ccc(O)cc1)C(=O)N[C@@H](CCCNC(=N)N)C(=O)N[C@@H](CC(C)C)C(=O)N[C@@H](CS)C(=O)N[C@@H](CS)C(=O)N[C@@H](CCCNC(=N)N)C(=O)O [HD-510-32] (H-CATRESLSGVCEISGRLYRLCCR-OH; N-terminus and C-terminus assumed)
antimicrobial activity in radial diffusion assay (pathogenic bacteria): only minimally active or more selective in terms of different strains; also recorded: limited to the two Gram-positive bacteria

CC[C@H](C)[C@H](NC(=O)[C@H](CCC(=O)O)NC(=O)[C@H](CS)NC(=O)[C@@H](NC(=O)CNC(=O)[C@H](CO)NC(=O)[C@H](CC(C)C)NC(=O)[C@H](CO)NC(=O)[C@@H](N)CCC(=O)O)C(C)C)C(=O)N[C@@H](CO)C(=O)NCC(=O)N[C@@H](CCCNC(=N)N)C(=O)N[C@@H](CC(C)C)C(=O)N[C@@H](Cc1ccc(O)cc1)C(=O)N[C@@H](CCCNC(=N)N)C(=O)N[C@@H](CC(C)C)C(=O)N[C@@H](CS)C(=O)N[C@@H](CS)C(=O)N[C@@H](CCCNC(=N)N)C(=O)O [HD-514-32] (H-ESLSGVCEISGRLYRLCCR-OH; N-terminus and C-terminus assumed)
antimicrobial activity in radial diffusion assay (pathogenic bacteria): inactive

CC[C@H](C)[C@@H]1NC(=O)[C@H](CC(C)C)NC(=O)[C@@H]2CSSC[C@@H]3NC(=O)[C@H](CO)NC(=O)[C@@H](NC(=O)[C@@H](N)C(C)C)CSSC[C@@H](C(=O)N[C@H](C(=O)N[C@@H](CCCNC(=N)N)C(=O)N[C@H](C(=O)O)C(C)C)[C@@H](C)O)NC(=O)[C@H](CSSC[C@H](NC(=O)[C@H](Cc4ccccc4)NC(=O)[C@H](C(C)C)NC(=O)[C@H](CC(C)C)NC(=O)[C@H](CCCNC(=N)N)NC3=O)C(=O)N[C@@H](CCCNC(=N)N)C(=O)N[C@@H](CCCNC(=N)N)C(=O)N[C@@H]([C@@H](C)O)C(=O)N[C@@H](CCC(=O)O)C(=O)N[C@@H](CC(C)C)C(=O)N[C@@H](CCCNC(=N)N)C(=O)N[C@@H](C(C)C)C(=O)NCC(=O)N[C@@H](CC(N)=O)C(=O)N2)NC(=O)[C@H](Cc2ccc(O)cc2)NC(=O)[C@H]([C@@H](C)O)NC(=O)[C@H](Cc2ccccc2)NC(=O)[C@H](CO)NC(=O)[C@H](C(C)C)NC(=O)CNC(=O)CNC1=O [HNP-4fl, reference compound] (H-VCSCRLVFCRRTELRVGNCLIGGVSFTYCCTRV-OH; disulfide 2-30, 4-19, 9-29 (inferred); N-terminus and C-terminus assumed)
MIC (P. aeruginosa 4-MRGN; 4-MRGN, 12 h): 50 µM | MIC (P. aeruginosa 4-MRGN; P. aeruginosa 4-MRGN, after 12 hours): 185.8 µg/mL | MIC (S. aureus ATCC 25923; ATCC 25923, 12 h): 6.25 µM | MIC (S. aureus ATCC 25923; S. aureus ATCC25923, after 12 hours): 23.2 µg/mL | MIC (Y. enterocolitica; 12 h): 12.5 µM | MIC (Y. enterocolitica; Y. enterocolitica, after 12 hours): 46.4 µg/mL | MIC (P. aeruginosa ATCC 27853; ATCC 27853, 12 h): 6.25 µM | MIC (P. aeruginosa ATCC 27853; P. aeruginosa ATCC 27853, after 12 hours): 23.2 µg/mL | MIC (P. aeruginosa PAO1; P. aeruginosa PAO1, after 12 hours): 46.4 µg/mL | MIC (P. aeruginosa PAO1; PAO1, 12 h): 12.5 µM | MIC (P. aeruginosa XPAT2; P. aeruginosa XPAT2, after 12 hours): 46.4 µg/mL | MIC (P. aeruginosa XPAT2; XPAT2, 12 h): 12.5 µM | MIC (E. faecium 475747; 475747, 12 h): 3.125 µM | MIC (E. faecium 475747; E. faecium 475747, after 12 hours): 11.6 µg/mL | MIC (P. aeruginosa XPAT1; P. aeruginosa XPAT1, after 12 hours): 46.4 µg/mL | MIC (P. aeruginosa XPAT1; XPAT1, 12 h): 12.5 µM | MIC (A. baumannii 4-MRGN; 4-MRGN, 12 h): 12.5 µM | MIC (A. baumannii 4-MRGN; A. baumannii 4-MRGN, after 12 hours): 46.4 µg/mL | MIC (E. faecium DSM 20477; DSM 20477, 12 h): 6.25 µM | MIC (E. faecium DSM 20477; E. faecium DSM20477, after 12 hours): 23.2 µg/mL | MIC (K. pneumoniae DSM 30104; DSM 30104, 12 h): 100 µM | MIC (K. pneumoniae DSM 30104; K. pneumoniae DSM30104, after 12 hours): 371.5 µg/mL | MIC (S. aureus USA300; S. aureus USA300, after 12 hours): 23.2 µg/mL | MIC (S. aureus USA300; USA300, 12 h): 6.25 µM | MIC (E. coli JM83; E. coli JM83, after 12 hours): 46.4 µg/mL | MIC (E. coli JM83; JM83, 12 h): 12.5 µM | MIC (A. baumannii DSM 30007; A. baumannii DSM30007, after 12 hours): 11.6 µg/mL | MIC (A. baumannii DSM 30007; DSM 30007, 12 h): 3.125 µM | MIC (K. pneumoniae 3-MRGN): >>> | MIC (C. albicans 529L; 529L, 24 h): 50 µM | MIC (C. albicans 529L; C. albicans 529L, after 24 hours (Table 5)): 185.8 µg/mL

CATRESLSGVCEISGRLY (listed as Homo sapiens) [HD-510-27, HD-5 fragment 10-27]
antimicrobial activity in radial diffusion assay (commensal bacteria): did not exhibit measurable activity | antimicrobial activity in radial diffusion assay (pathogenic bacteria): inactive

LYRLCCR (listed as Homo sapiens) [HD-526-32, HD-5 fragment 26-32]
antimicrobial activity in radial diffusion assay (commensal bacteria): exhibited antimicrobial properties, albeit to a lesser extent than HD-51-9 | antimicrobial activity in radial diffusion assay (pathogenic bacteria): only minimally active or more selective in terms of different strains
